A melting point compilation (Tetko et al.; mined from patent text by program, amines drawn as free bases though some values may be those of a salt)

Row | SMILES | melting point
1 | CN1C(=O)SC(Cc2ccc(N)cc2)C1=O (configuration not stated) | 91 to 92 °C
2 | ClC1=NC(Cl)(c2ccc(Cl)cc2)NC=N1 (configuration not stated) | 142 to 143 °C
3 | O=C(O)c1ccc(CCc2ccc(NC(=O)C3CSc4ccccc4C3=O)cc2)cc1 (configuration not stated) | 256 to 259 °C
4 | Nc1ccc(O)c(CSCCO)c1 | 121 °C
5 | N[C@H](C1CCCCC1)C(O)(c1ccc2ccccc2c1)c1ccc2ccccc2c1 | 205 to 206 °C
6 | NC(=O)c1nccn1C1Cc2cc(F)ccc2C1=O (configuration not stated) | 221 °C
7 | CC1(C)CCC(C)(C)c2cc(-c3cc4ccc(C(=O)O)cc4[nH]3)ccc21 | 215 °C
8 | CCOC(=O)c1cn2c3c(c(F)c(F)cc3c1=O)OCC2COC (configuration not stated) | 238 °C
9 | CCCN(CCC)c1ccc2c(c1)O/C(=C1/Oc3cc(N(CCC)CCC)ccc3C1=O)C2=O | 283 °C
10 | Nc1cccc2c1CCN(C(=O)C(F)(F)F)CC2 | 85 to 88 °C
11 | N#CC1(N2C(=O)c3cccc(Cl)c3C2=O)CCCCC1 | 115 to 116 °C
12 | CC(C)/C=C(/C(=O)O)c1ccc(S(C)(=O)=O)cc1 | 179 to 182 °C
13 | COC(=O)c1cccc(C(=O)NC2N=C(c3ccccc3F)c3ccccc3N(CC(=O)N3CC4CCC(CC4)C3)C2=O)c1 (racemic) | 166 to 177 °C
14 | O=Cc1c(-c2ccccc2F)ccc2c1OCO2 | 84 to 86 °C
15 | Nc1ccc(NC(=O)NC(=O)c2c(F)cccc2F)cc1 | 240 °C
16 | O=C(O)C1=Cc2cc(Cl)c(Oc3cccc(Cl)n3)cc2OC1C(F)(F)F (configuration not stated) | 226 to 227 °C
17 | CCCCCCCCCCCCCCCCCCOc1ccc(N)cc1 | 95 to 97 °C

Continued, values first:

Row | melting point | SMILES
18 | 160 °C | Cn1cncc1-c1nc(-c2cccc(Cl)c2)c2cc(C(O)(c3ccc(Cl)cc3)c3cncn3C)ccc2n1 (configuration not stated)
19 | 150 to 152 °C | CC(C)S(=O)(=O)Nc1cc(C(=O)c2ccccc2)ccc1N
20 | 114 to 117 °C | CC(=O)N1CCc2c(sc(CCN3CCC(c4noc5cc(F)ccc45)CC3)c2Br)C1
21 | 57 to 59 °C | Cc1cc(SC(C)C)c(NC(=O)CN2CCN(CCSc3nc4cccc([N+](=O)[O-])c4o3)CC2)c(SC(C)C)n1
22 | 162 to 164 °C | COc1ccc(-c2nc(S(=O)c3ccc(C)cc3)n(C3CCCCO3)c2-c2ccc(OC)cc2)cc1 (configuration not stated)
23 | 163 to 164 °C | CCN(CC)CC1CCCCN1CC(=O)N1c2ccccc2NC(=O)c2cscc21 (configuration not stated)
24 | 136 °C | COc1ccc(S(=O)(=O)N2C(=O)C(c3ccccc3OC)(N3CCC[C@H]3C(=O)OC(C)(C)C)c3cc(Cl)ccc32)c(OC)c1 (some centres not stated)
25 | 101 to 102 °C | CC(=O)c1ccc(COC(=O)N2CCN(CC3(C)Cn4cc([N+](=O)[O-])nc4O3)CC2)cc1 (configuration not stated)
26 | 159 to 160 °C | CCNC(=O)c1c(-c2ccccc2)cccc1[Si](C)(C)C
27 | 253 to 255 °C | O=C(O)c1ccc2oc3c(c(=O)c2c1)CCCC3
28 | 90 to 95 °C | O=C(c1cc(N2CCC(F)(F)CC2)ccn1)N(O)Cc1ccccc1
29 | 110 °C | CN(C)CC1Cc2c(n(C)c3ccc(O)cc23)C1 (configuration not stated)
30 | 219 to 220 °C | CCCOc1ncc(NC(=O)N(C)C)cc1-c1nc2c(CCC)nn(C)c2c(=O)[nH]1
31 | 207 to 209 °C | CCOCc1nc2c(N)nc3ccccc3c2n1CC1(O)CCC2(CC1)OCCO2
32 | 61 to 63 °C | CC(C)n1nc(-c2ccc(O)cc2O)c2cccc(C(F)(F)F)c21
33 | 176 to 177 °C | Cc1ccc(-c2ccc3c(c2)C=C(C(=O)Nc2ccc(CSc4ccccc4)cc2)CCO3)cc1
34 | 290 °C | Cc1cc(O)n2ncc([N+](=O)[O-])c2n1
35 | 262 to 263 °C | O=C(Cc1ccc(C(=O)O)cc1)Nc1cccc(/C=C/c2nc(C3CCC3)cs2)c1
36 | 246 to 248 °C | Cc1cccc(C)c1-c1cc(C(N)=O)ccc1C(N)=O
37 | 107 to 115 °C | CCCn1cc(Cc2ccc(C(=O)NS(=O)(=O)c3ccccc3C)cc2OC)c2cc(CC3CCN(CC)C3=O)ccc21 (configuration not stated)
